Data published in US20210400970A1, “COMPOSITIONS COMPRISING PYRIDINE CARBOXYLATE HERBICIDES AND MICROTUBULE ASSEMBLY INHIBITOR HERBICIDES” (priority 2018, published 2021).

Assays:
Type in all cases: in vivo
Conditions in all cases: 20-22 d
[1] = tested on: Digitaria sanguinalis (large crabgrass, DIGSA); assay: Greenhouse post-emergence herbicidal effect on large crabgrass
Description: (§1) Seeds of the desired test plant species were planted in a 90:10% v/v (volume/volume) mixture of PRO-MIX® BX (Premier Tech Horticulture, Quakertown, Pa., USA) and PROFILE® GREENS GRADE™ (Profile Products LLC, Buffalo Grove, Ill., USA) planting mixture, which typically has a pH of 5.2 to 6.2 and an organic matter content of at least 50 percent, in plastic pots with a surface area of 103.2 square centimeters (cm^2). […] The plants were grown for 7-36 days (d) in a greenhouse with an approximate 14-hour (h) photoperiod which was maintained at about 23° C. during the day and 22° C. during the night. Nutrients and water were added on a regular basis and supplemental lighting was provided with overhead metal halide 1000-Watt lamps as necessary. The plants were employed for testing when they reached the second or third true leaf stage.
(§2) Emulsifiable concentrates of each of each pyridine carboxylate herbicide (Compound A or Compound B) were prepared at 100 grams acid equivalent per liter (g ae/L). The emulsifiable concentrates also included a safener, cloquintocet-mexyl, at 120 grams active ingredient per liter (g ai/L). An aliquot of each emulsifiable concentrate was placed in a 25 mL glass vial and diluted with an aqueous mixture of 1.25% (v/v) ACTIROB® B esterified rapeseed oil (Bayer Crop Science, Research Triangle Park, NC, USA) or MSO® Concentrate with LECI-TECH® methylated soybean oil (Loveland Products, Loveland, Colo., USA) to obtain concentrated stock solutions at the highest application rate for each herbicide, based upon a 12 milliliter (mL) application volume at a rate of 187 liters per hectare (L/ha). The concentrated stock solutions were further diluted with an aqueous mixture of 1.25% v/v ACTIROB® B or MSO® Concentrate with LECI-TECH® to obtain stock solutions at reduced application rates for each herbicide. Spray solutions of the herbicide combinations (Compound A or Compound B plus the MAI herbicide) were prepared by adding weighed amounts or aliquots of the MAI herbicide to the stock solutions of Compound A or Compound B to form 12-mL spray solutions in two-way combinations.
(§3) The spray solutions were applied to the plant material with an overhead Mandel track sprayer equipped with 8002E nozzles calibrated to deliver 187 L/ha over an application area of 0.503 square meters (m^2) at a spray height of 18 inches (43 centimeters (cm)) above the average plant canopy. Control plants were sprayed in the same manner with the solvent blank. All pyridine carboxylate herbicide (component a) application rates are given as “g ae/ha” and all MAI herbicide (component b) application rates are given as “g ai/ha.”
(§4) The treated plants and control plants were placed in a greenhouse as described above and watered by sub-irrigation to prevent wash-off of the test compounds. After 20-22 d, the condition of the test plants as compared with that of the control plants was determined visually and scored on a scale of 0 to 100 percent where 0 corresponds to no injury and 100 corresponds to complete kill.

[2] = tested on: Viola tricolor (wild pansy, VIOTR); assay: Greenhouse post-emergence herbicidal effect on wild pansy
Description: as §1, §2, §3, §4

[3] = tested on: Brassica napus (spring rape, BRSNN); assay: Greenhouse post-emergence herbicidal effect on spring rape
Description: as §1, §2, §3, §4

[4] = tested on: Chenopodium album L. (common lambsquarters, CHEAL); assay: Greenhouse post-emergence herbicidal effect on common lambsquarters
Description: as §1, §2
(§5) The spray solutions were applied to the plant material with an overhead Mandel track sprayer equipped with 8002E nozzles calibrated to deliver 187 L/ha over an application area of 0.503 square meters (m^2) at a spray height of 18 inches (43 centimeters (cm)) above the average plant canopy. […]
as §4

[5] = tested on: Echinochloa crus-galli (barnyard grass, ECHCG); assay: Greenhouse post-emergence herbicidal effect on barnyard grass
Description: as §1, §2, §3, §4

[6] = tested on: Polygonum convolvulus (wild buckwheat, POLCO); assay: Greenhouse post-emergence herbicidal effect on wild buckwheat
Description: as §1, §2, §5, §4

[7] = tested on: Ipomoea hederacea (ivyleaf morningglory, IPOHE); assay: Greenhouse post-emergence herbicidal effect on ivyleaf morningglory
Description: as §1, §2, §3, §4

[8] = tested on: Kochia scoparia (kochia, KCHSC); assay: Greenhouse post-emergence herbicidal effect on kochia
Description: as §1, §2, §3, §4

[9] = tested on: Abutilon theophrasti (velvetleaf, ABUTH); assay: Greenhouse post-emergence herbicidal effect on velvetleaf
Description: as §1, §2, §5, §4

[10] = tested on: Setaria faberi (giant foxtail, SETFA); assay: Greenhouse post-emergence herbicidal effect on giant foxtail
Description: as §1, §2, §3, §4

[11] = tested on: Cirsium arvense (Canada thistle, CIRAR); assay: Greenhouse post-emergence herbicidal effect on Canada thistle
Description: as §1, §2, §3, §4

[12] = tested on: Rumex obtusifolius (broad-leaf dock, RUMOB); assay: Greenhouse post-emergence herbicidal effect on broad-leaf dock
Description: as §1, §2, §3, §4

[13] = tested on: Glycine max (soybean, GLXMA); assay: Greenhouse post-emergence herbicidal effect on volunteer soybean
Description: as §1, §2, §3, §4

[14] = tested on: Lolium multiflorum (Italian ryegrass, LOLMU); assay: Greenhouse post-emergence herbicidal effect on Italian ryegrass
Description: as §1, §2, §3, §4

[15] = MAI herbicide alone, 280 g ai/ha
[16] = MAI herbicide alone, 560 g ai/ha

N#CCOC(=O)c1nc(-c2ccc3cc[nH]c3c2F)c(F)c(N)c1Cl [Compound A, cyanomethyl 4-amino-3-chloro-5-fluoro-6-(7-fluoro-1H-indol-6-yl)pyridine-2-carboxylate]
Obs (% visual injury) ([1]; Compound A alone, 7.5 g ae/ha): 45% | Obs (% visual injury) ([1]; Compound A alone, 10 g ae/ha): 25% | Obs (% visual injury) ([2]; Compound A alone, 7.5 g ae/ha): 10% | Obs (% visual injury) ([2]; Compound A alone, 10 g ae/ha): 18% | Obs (% visual injury) ([3]; Compound A alone, 7.5 g ae/ha): 73% | Obs (% visual injury) ([3]; Compound A alone, 10 g ae/ha): 83% | Obs (% visual injury) ([4]; Compound A alone, 7.5 g ae/ha): 97% | Obs (% visual injury) ([4]; Compound A alone, 10 g ae/ha): 93% | Obs (% visual injury) ([5]; Compound A alone, 7.5 g ae/ha): 73% | Obs (% visual injury) ([5]; Compound A alone, 10 g ae/ha): 78% | Obs (% visual injury) ([6]; Compound A alone, 7.5 g ae/ha): 75% | Obs (% visual injury) ([6]; Compound A alone, 10 g ae/ha): 70% | Obs (% visual injury) ([7]; Compound A alone, 7.5 g ae/ha): 3% | Obs (% visual injury) ([7]; Compound A alone, 10 g ae/ha): 8% | Obs (% visual injury) ([8]; Compound A alone, 7.5 g ae/ha): 60% | Obs (% visual injury) ([8]; Compound A alone, 10 g ae/ha): 65% | Obs (% visual injury) ([9]; Compound A alone, 7.5 g ae/ha): 68% | Obs (% visual injury) ([9]; Compound A alone, 10 g ae/ha): 78% | Obs (% visual injury) ([10]; Compound A alone, 7.5 g ae/ha): 70% | Obs (% visual injury) ([10]; Compound A alone, 10 g ae/ha): 70% | Obs (% visual injury) ([11]; Compound A alone, 7.5 g ae/ha): 23% | Obs (% visual injury) ([11]; Compound A alone, 10 g ae/ha): 20% | Obs (% visual injury) ([12]; Compound A alone, 7.5 g ae/ha): 8% | Obs (% visual injury) ([12]; Compound A alone, 10 g ae/ha): 10% | Obs (% visual injury) ([13]; Compound A alone, 7.5 g ae/ha): 93% | Obs (% visual injury) ([13]; Compound A alone, 10 g ae/ha): 95% | Obs (% visual injury) ([14]; Compound A alone, 7.5 g ae/ha): 0% | Obs (% visual injury) ([14]; Compound A alone, 10 g ae/ha): 0%

CSC(=O)c1c(C(F)F)nc(C(F)(F)F)c(C(=O)SC)c1CC(C)C [Dithiopyr]
Obs (% visual injury) [1, 15]: 33% | Obs (% visual injury) [2, 15]: 0% | Obs (% visual injury) [3, 15]: 58% | Obs (% visual injury) [4, 15]: 10% | Obs (% visual injury) [5, 15]: 0% | Obs (% visual injury) [6, 15]: 0% | Obs (% visual injury) [7, 15]: 30% | Obs (% visual injury) [8, 15]: 15% | Obs (% visual injury) [9, 15]: 40% | Obs (% visual injury) [10, 15]: 0% | Obs (% visual injury) [11, 15]: 0% | Obs (% visual injury) [12, 15]: 5% | Obs (% visual injury) [13, 15]: 13% | Obs (% visual injury) [14, 15]: 0%

CCC(CC)Nc1c([N+](=O)[O-])cc(C)c(C)c1[N+](=O)[O-] [Pendimethalin]
Obs (% visual injury) [1, 16]: 15% | Obs (% visual injury) [2, 16]: 0% | Obs (% visual injury) [3, 16]: 15% | Obs (% visual injury) [5, 16]: 0% | Obs (% visual injury) [6, 16]: 0% | Obs (% visual injury) [7, 16]: 3% | Obs (% visual injury) [8, 16]: 18% | Obs (% visual injury) [10, 16]: 0% | Obs (% visual injury) [11, 16]: 5% | Obs (% visual injury) [12, 16]: 0% | Obs (% visual injury) [13, 16]: 23% | Obs (% visual injury) [14, 16]: 0%

C#CC(C)(C)NC(=O)c1cc(Cl)cc(Cl)c1 [Propyzamide]
Obs (% visual injury) [1, 15]: 0% | Obs (% visual injury) [2, 15]: 0% | Obs (% visual injury) [3, 15]: 0% | Obs (% visual injury) [4, 15]: 0% | Obs (% visual injury) [5, 15]: 0% | Obs (% visual injury) [7, 15]: 3% | Obs (% visual injury) [8, 15]: 18% | Obs (% visual injury) [9, 15]: 5% | Obs (% visual injury) [10, 15]: 0% | Obs (% visual injury) [11, 15]: 0% | Obs (% visual injury) [12, 15]: 0% | Obs (% visual injury) [13, 15]: 23% | Obs (% visual injury) [14, 15]: 0%
